{"source": "patent US11674162B2", "about": "“Selective advantage in fermentation” (Ginkgo Bioworks, Inc., priority 2014, dated 2023)", "key": {"NS103": {"test_system": "NS103", "experiment": "Growth progress in MOPS defined medium with different nitrogen sources", "type": "cell-based, Escherichia coli", "conditions": "strain NS103, 0.25 mM as sole nitrogen source", "description": "(§1) Vector and strain construction was as described in Examples 1-4. All vectors contain the ampicillin resistance gene, and 100 ug/mL ampicillin was added to all culture medium. These strains were grown in MOPS defined medium with different nitrogen sources.\n(§2) An average of all four strains grown on different ammonium chloride concentrations from 0 to 1.5 mM is also shown as a standard curve for growth with limiting nitrogen. NS91 grown on melamine is similar to the 0 mM ammonium chloride control.\n(§3) An average of all four strains grown on different ammonium chloride concentrations from 0 to 1.5 mM is also shown as a standard curve for growth with limiting nitrogen. NS91 grown on ammeline is similar to the 0 mM ammonium chloride control.\n(§4) Cultures were grown aerobically at 37° C. with 100 mg/L ampicillin. Pre-cultures were grown in LB media with 100 mg/L ampicillin, washed once with an equal volume of MOPS media containing no nitrogen, and inoculated at 5% v/v of the final fermentation volume. The content of the MOPS medium is outlined in Table 9."}, "NS91 [1]": {"test_system": "NS91", "experiment": "Growth progress in MOPS defined medium with different nitrogen sources", "type": "cell-based, Escherichia coli", "conditions": "for ammonium chloride concentration giving similar growth: strain NS91 (control), 0.25 mM as sole nitrogen source; for growth with the compound as nitrogen source: control strain NS91, MOPS medium", "description": "as §1, §2, §3, §4"}, "NS93": {"test_system": "NS93", "experiment": "Maximum growth rate on ammeline as sole nitrogen source", "type": "cell-based, Escherichia coli", "conditions": "strain NS93, 0.5 mM ammeline as sole nitrogen source", "description": "(§5) Strains can also be selected for improved utilization of melamine derived nitrogen sources, in one example NS88 was passaged for 11 serial transfers in MOPS defined medium with 0.5 mM ammeline as sole nitrogen source. After the final passage, single colonies were isolated, and one was designated as NS93. NS93 and NS91 were grown overnight in medium with 0.5 mM ammonium chloride as sole nitrogen source, and then inoculated in medium with 0.5 mM ammeline as sole nitrogen source."}, "NS91 [2]": {"test_system": "NS91", "experiment": "Maximum growth rate on ammeline as sole nitrogen source", "type": "cell-based, Escherichia coli", "conditions": "strain NS91 (control), 0.5 mM ammeline as sole nitrogen source", "description": "as §5"}, "NS90": {"test_system": "NS90", "experiment": "Growth progress in MOPS defined medium with different nitrogen sources", "type": "cell-based, Escherichia coli", "conditions": "strain NS90, 1 mM nitrogen source", "description": "as §1, §4"}, "NS99": {"test_system": "NS99", "experiment": "Optical density after 72 hours in defined YNB medium with different nitrogen sources", "type": "cell-based, Saccharomyces cerevisiae", "conditions": "strain NS99, 10 mM nitrogen source, aerobic 30° C.", "description": "(§6) Strains NS98 and NS99 are industrial S. cereviaie strains carrying plasmids pNC96 (hyg^R, and a codon optimized trzE from Rhodococcus sp. MEL and pNC97 (hyg^R, and a codon optimized trzE from Rhizobium leguminosarum), respectively. Strain NS100 is the same industral S. cerevisiae stain carrying plasmid pNC67 (hyg^R, nat^R) which serves as a control strain.\n(§7) Strains NS98, NS99, and NS100 were grown in defined YNB medium with 10 mM urea and 100 μg/mL hygromycin to stationary phase aerobically at 30° C. 1/1000 v/v inoculations were then made into the same defined medium with either 10 mM urea, 10 mM biuret, or no additional nitrogen and grown under the same conditions."}, "NS98": {"test_system": "NS98", "experiment": "Optical density after 72 hours in defined YNB medium with different nitrogen sources", "type": "cell-based, Saccharomyces cerevisiae", "conditions": "strain NS98, 10 mM nitrogen source, aerobic 30° C.", "description": "as §6, §7"}, "NS100 [3]": {"test_system": "NS100", "experiment": "Optical density after 72 hours in defined YNB medium with different nitrogen sources", "type": "cell-based, Saccharomyces cerevisiae", "conditions": "strain NS100 (control)", "description": "as §7\nas §7, with “Additionally, strains NS100, NS101, NS111,” for “Strains NS98, NS99,”, “NS112” for “NS100”, “cyanamide,” for “biuret,”"}, "NS101 [4]": {"test_system": "NS101", "experiment": "Growth in rich YPD medium with and without cyanamide (FIG. 24)", "type": "cell-based, Saccharomyces cerevisiae", "conditions": "rich YPD medium with 10 mM cyanamide, 30° C.", "description": "The optical density of NS100 and NS101 grown in rich YPD medium with 100 μg/mL hygromycin and with and without 10 mM cyanamide was assessed as follows. NS100 and NS101 were grown overnight in YNB medium, and inoculated at 3.33% v/v. […] Thus, cyanamide, in addition to functioning as a sole source of nitrogen, may also act as a deterrent for microbial growth. Data are averages of 3 replicate wells in a 96 well plate; 150 μL per well. 30° C., YPD medium or YPD medium with 10 mM cyanamide. Inoculation was with 5 μL of culture pregrown for 24 hours in the YNB medium with urea as nitrogen source (FIG. 24)."}, "NS101 [5]": {"test_system": "NS101", "experiment": "Growth progress in defined medium, 96 well plate (FIG. 21)", "type": "cell-based, Saccharomyces cerevisiae", "conditions": "strain NS101, 10 mM, YNB medium, 30° C.", "description": "(§8) The optical density of NS100 and NS101 grown in defined medium with different nitrogen sources was assessed as follows. NS100 and NS101 were grown overnight in YPD medium, washed once in an equal volume of sterile water, and inoculated at 3.33% v/v. […] Data are averages of 3 replicate wells in a 96 well plate; 150 μL per well. 30° C., YNB medium contained 20 g/L glucose, 1.7 g/L YNB base medium without amino acids or ammonium sulfate, 5 g/L sodium sulfate, 100 μg/mL hygromycin, and either 10 mM urea, 10 mM cyanamide, or no nitrogen source. Inoculation was with 5 μL of culture pregrown for 24 hours in the same medium with urea as nitrogen source (FIG. 21)."}, "NS100 [6]": {"test_system": "NS100", "experiment": "Growth progress in defined medium, 96 well plate (FIG. 21)", "type": "cell-based, Saccharomyces cerevisiae", "conditions": "strain NS100 (control), 10 mM, YNB medium, 30° C.", "description": "as §8"}, "NS112": {"test_system": "NS112", "experiment": "Optical density after 72 hours in defined YNB medium with different nitrogen sources", "type": "cell-based, Saccharomyces cerevisiae", "conditions": "strain NS112 (control), 10 mM nitrogen source", "description": "as §7, with “Additionally, strains NS100, NS101, NS111,” for “Strains NS98, NS99,”, “NS112” for “NS100”, “cyanamide,” for “biuret,”"}, "NS101 [7]": {"test_system": "NS101", "experiment": "Optical density after 72 hours in defined YNB medium with different nitrogen sources", "type": "cell-based, Saccharomyces cerevisiae", "conditions": "strain NS101 (cah), 10 mM nitrogen source", "description": "as §7, with “Additionally, strains NS100, NS101, NS111,” for “Strains NS98, NS99,”, “NS112” for “NS100”, “cyanamide,” for “biuret,”"}, "NS111": {"test_system": "NS111", "experiment": "Optical density after 72 hours in defined YNB medium with different nitrogen sources", "type": "cell-based, Saccharomyces cerevisiae", "conditions": "strain NS111 (cah), 10 mM nitrogen source", "description": "as §7, with “Additionally, strains NS100, NS101, NS111,” for “Strains NS98, NS99,”, “NS112” for “NS100”, “cyanamide,” for “biuret,”"}, "NS88": {"test_system": "NS88", "experiment": "Growth progress in MOPS defined medium with different nitrogen sources", "type": "cell-based, Escherichia coli", "conditions": "strain NS88, 1 mM nitrogen source", "description": "as §1, §4"}, "[8]": {"test_system": "E. coli strains containing pNC121", "experiment": "Growth on melamine as sole nitrogen source (FIG. 18)", "type": "cell-based, Escherichia coli", "conditions": "0.5 mM; E. coli K12, MG1655, B and Crooks strains containing pNC121", "description": "FIGS. 16, 17, and 18 show E. coli strains derived from E. coli K12, E. coli MG1655, E. coli B, and E. coli Crooks (C) containing either pNC121 with the complete melamine utilization pathway, or pNC53, a control vector. See Tables 7 and 8 for strain details. All the strains containing pNC121 are able to grow on 0.5 mM melamine as sole nitrogen source (FIG. 18).\nas §4"}, "[9]": {"conditions": "Table 10, 10 mM nitrogen source"}, "[10]": {"conditions": "Table 11, 10 mM nitrogen source"}}}
{"smiles": "Nc1nc(N)[nH]c(=O)n1", "note": "[ammeline, Ammeline]", "values": [{"measurement": "ammonium chloride concentration giving similar growth", "setting": "NS103", "result": "~0.5", "unit": "mM"}, {"measurement": "ammonium chloride concentration giving similar growth", "setting": "NS91 [1]", "result": "~0", "unit": "mM"}, {"measurement": "maximum growth rate", "setting": "NS93", "result": 0.087, "unit": "h⁻¹"}, {"measurement": "maximum growth rate", "setting": "NS91 [2]", "result": 0.024, "unit": "h⁻¹"}]}
{"smiles": "NC(=O)NC(N)=O", "note": "[biuret, Biuret]", "values": [{"measurement": "growth with the compound as nitrogen source", "setting": "NS91 [1]", "result": "does not grow"}, {"measurement": "ammonium chloride concentration giving comparable optical density", "setting": "NS90", "result": "~3", "unit": "mM"}, {"measurement": "Optical Density 600 nm", "setting": "NS99", "result": 2.18}, {"measurement": "Optical Density 600 nm", "setting": "NS98", "result": 2.55}, {"measurement": "Optical Density 600 nm", "setting": "NS100 [3]; [9]", "result": 1.21}]}
{"smiles": "N#CN", "note": "[cyanamide, Cyanamide]", "values": [{"measurement": "lag phase of NS101 relative to NS100", "setting": "NS101 [4]", "result": "shorter lag phase"}, {"measurement": "optical density reached", "setting": "NS101 [5]", "result": "comparable to that with urea"}, {"measurement": "optical density reached", "setting": "NS100 [6]", "result": "comparable to that with no nitrogen present in the medium"}, {"measurement": "Optical Density 600 nm", "setting": "NS112", "result": 0.15}, {"measurement": "Optical Density 600 nm", "setting": "NS101 [7]", "result": 4.66}, {"measurement": "Optical Density 600 nm", "setting": "NS111", "result": 3.09}, {"measurement": "Optical Density 600 nm", "setting": "NS100 [3]; [10]", "result": 0.05}]}
{"smiles": "Nc1nc(N)nc(N)n1", "note": "[melamine, Melamine]", "values": [{"measurement": "growth with the compound as nitrogen source", "setting": "NS91 [1]", "result": "does not grow"}, {"measurement": "ammonium chloride concentration giving similar growth", "setting": "NS91 [1]", "result": "~0", "unit": "mM"}, {"measurement": "ammonium chloride concentration giving comparable optical density", "setting": "NS88", "result": "~2", "unit": "mM"}, {"measurement": "growth on the compound as sole nitrogen source", "setting": "[8]", "result": "able to grow"}]}
{"smiles": "NC(N)=O", "note": "[urea]", "values": [{"measurement": "Optical Density 600 nm", "setting": "NS112", "result": 3.05}, {"measurement": "Optical Density 600 nm", "setting": "NS101 [7]", "result": 3.60}, {"measurement": "Optical Density 600 nm", "setting": "NS111", "result": 3.68}, {"measurement": "Optical Density 600 nm", "setting": "NS99", "result": 5.26}, {"measurement": "Optical Density 600 nm", "setting": "NS98", "result": 5.09}, {"measurement": "Optical Density 600 nm", "setting": "NS100 [3]; [9]", "result": 5.22}, {"measurement": "Optical Density 600 nm", "setting": "NS100 [3]; [10]", "result": 3.12}]}
